# Measured values reported in ChEMBL document CHEMBL6074704, “The Antiepileptic Drug Levetiracetam Inhibits Carbonic Anhydrase: In Vitro and In Silico Studies on Catalytically Active Human Isoforms” (ACS Med Chem Lett, 2024).
# Assays:
# [1] = target: Carbonic anhydrase 5A, mitochondrial (Homo sapiens, UniProt P35218); experiment: Inhibition of human CA VA preincubated for 15 mins by phenol red staining based stopped flow CO2 hydrase assay
# Carbonic anhydrase 2 = Carbonic anhydrase 2 (Homo sapiens, UniProt P00918); experiment: Inhibition of human CA2 preincubated for 15 mins by phenol red staining based stopped flow CO2 hydrase assay
# Carbonic anhydrase 4 = Carbonic anhydrase 4 (Homo sapiens, UniProt P22748); experiment: Inhibition of human CA4 preincubated for 15 mins by phenol red staining based stopped flow CO2 hydrase assay
# Carbonic anhydrase 4, sequence (P22748 whole entry): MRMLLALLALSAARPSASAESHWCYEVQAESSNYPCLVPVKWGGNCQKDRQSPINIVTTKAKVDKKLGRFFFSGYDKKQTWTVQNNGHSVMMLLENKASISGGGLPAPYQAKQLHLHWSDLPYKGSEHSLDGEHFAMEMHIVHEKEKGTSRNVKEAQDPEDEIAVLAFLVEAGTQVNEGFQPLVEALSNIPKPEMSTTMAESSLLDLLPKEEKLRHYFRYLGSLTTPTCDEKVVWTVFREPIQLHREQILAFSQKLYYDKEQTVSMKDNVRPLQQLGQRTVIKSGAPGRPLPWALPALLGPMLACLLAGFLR
# Carbonic anhydrase 13 = Carbonic anhydrase 13 (Homo sapiens, UniProt Q8N1Q1); experiment: Inhibition of human CA13 preincubated for 15 mins by phenol red staining based stopped flow CO2 hydrase assay
# Carbonic anhydrase 13, sequence (Q8N1Q1 whole entry): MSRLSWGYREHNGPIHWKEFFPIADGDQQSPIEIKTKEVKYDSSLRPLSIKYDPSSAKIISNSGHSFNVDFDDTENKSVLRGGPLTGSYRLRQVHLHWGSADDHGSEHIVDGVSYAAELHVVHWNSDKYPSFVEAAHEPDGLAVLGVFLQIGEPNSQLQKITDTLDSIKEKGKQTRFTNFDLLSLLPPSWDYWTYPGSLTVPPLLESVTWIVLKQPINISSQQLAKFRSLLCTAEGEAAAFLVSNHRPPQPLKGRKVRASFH
# Carbonic anhydrase 14 = Carbonic anhydrase 14 (Homo sapiens, UniProt Q9ULX7); experiment: Inhibition of human CA14 preincubated for 15 mins by phenol red staining based stopped flow CO2 hydrase assay
# Carbonic anhydrase 14, sequence (Q9ULX7 whole entry): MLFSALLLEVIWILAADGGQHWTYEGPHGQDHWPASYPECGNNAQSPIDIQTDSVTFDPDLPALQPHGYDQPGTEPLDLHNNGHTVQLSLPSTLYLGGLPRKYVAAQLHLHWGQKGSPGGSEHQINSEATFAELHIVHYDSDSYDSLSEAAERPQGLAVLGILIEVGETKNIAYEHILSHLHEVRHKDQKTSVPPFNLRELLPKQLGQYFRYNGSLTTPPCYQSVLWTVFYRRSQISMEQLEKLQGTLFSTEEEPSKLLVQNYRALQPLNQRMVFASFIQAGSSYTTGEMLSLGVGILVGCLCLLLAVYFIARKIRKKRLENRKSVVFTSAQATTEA
# Carbonic anhydrase 9 = Carbonic anhydrase 9 (Homo sapiens, UniProt Q16790)
# [2] = target: Carbonic anhydrase 5B, mitochondrial (Homo sapiens, UniProt Q9Y2D0); experiment: Inhibition of human CA VB preincubated for 15 mins by phenol red staining based stopped flow CO2 hydrase assay
# Carbonic anhydrase 5B, mitochondrial, sequence (Q9Y2D0 whole entry): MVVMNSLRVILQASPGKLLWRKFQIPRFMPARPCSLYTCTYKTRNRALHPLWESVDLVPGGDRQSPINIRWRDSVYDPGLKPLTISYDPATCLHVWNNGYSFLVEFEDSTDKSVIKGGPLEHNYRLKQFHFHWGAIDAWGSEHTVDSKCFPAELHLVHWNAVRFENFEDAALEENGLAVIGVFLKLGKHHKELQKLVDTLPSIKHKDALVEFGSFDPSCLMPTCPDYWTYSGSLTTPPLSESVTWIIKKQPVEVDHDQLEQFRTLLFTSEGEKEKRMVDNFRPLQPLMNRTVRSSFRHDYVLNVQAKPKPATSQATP
# Carbonic anhydrase 7 = Carbonic anhydrase 7 (Homo sapiens, UniProt P43166)
# Carbonic anhydrase 7, sequence (P43166 whole entry): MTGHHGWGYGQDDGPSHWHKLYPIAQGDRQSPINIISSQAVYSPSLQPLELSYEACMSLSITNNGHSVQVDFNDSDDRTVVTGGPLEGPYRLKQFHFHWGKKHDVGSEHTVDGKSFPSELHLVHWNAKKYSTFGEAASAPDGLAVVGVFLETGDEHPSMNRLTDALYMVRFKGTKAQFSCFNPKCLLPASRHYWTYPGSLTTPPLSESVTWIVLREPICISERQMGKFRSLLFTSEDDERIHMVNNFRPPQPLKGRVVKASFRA
# Description: Inhibition of human CA7 preincubated for 15 mins by phenol red staining based stopped flow CO2 hydrase assay
# Carbonic anhydrase 12 = Carbonic anhydrase 12 (Homo sapiens, UniProt O43570)
# Carbonic anhydrase 12, sequence (O43570 whole entry): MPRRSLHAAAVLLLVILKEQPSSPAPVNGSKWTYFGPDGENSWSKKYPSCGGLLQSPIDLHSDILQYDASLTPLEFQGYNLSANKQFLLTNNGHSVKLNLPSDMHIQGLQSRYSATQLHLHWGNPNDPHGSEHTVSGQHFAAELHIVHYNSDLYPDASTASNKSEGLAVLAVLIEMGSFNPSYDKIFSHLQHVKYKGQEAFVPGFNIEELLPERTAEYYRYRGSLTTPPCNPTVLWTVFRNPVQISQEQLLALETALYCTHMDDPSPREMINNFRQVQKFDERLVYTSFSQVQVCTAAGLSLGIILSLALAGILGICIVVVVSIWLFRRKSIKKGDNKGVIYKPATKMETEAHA
# Description: Inhibition of human CA12 preincubated for 15 mins by phenol red staining based stopped flow CO2 hydrase assay
# Carbonic anhydrase 3 = Carbonic anhydrase 3 (Homo sapiens, UniProt P07451)
# Carbonic anhydrase 3, sequence (P07451 whole entry): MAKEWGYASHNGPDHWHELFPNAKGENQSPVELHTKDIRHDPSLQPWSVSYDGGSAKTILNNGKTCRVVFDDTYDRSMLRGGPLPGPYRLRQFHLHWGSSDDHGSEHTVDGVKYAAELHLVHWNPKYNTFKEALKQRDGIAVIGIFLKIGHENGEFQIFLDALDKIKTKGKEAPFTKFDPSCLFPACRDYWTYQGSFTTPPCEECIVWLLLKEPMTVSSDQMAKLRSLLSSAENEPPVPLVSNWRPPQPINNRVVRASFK
# Description: Inhibition of human CA3 preincubated for 15 mins by phenol red staining based stopped flow CO2 hydrase assay
# Carbonic anhydrase 6 = Carbonic anhydrase 6 (Homo sapiens, UniProt P23280); experiment: Inhibition of human CA6 preincubated for 15 mins by phenol red staining based stopped flow CO2 hydrase assay
# Carbonic anhydrase 6, sequence (P23280 whole entry): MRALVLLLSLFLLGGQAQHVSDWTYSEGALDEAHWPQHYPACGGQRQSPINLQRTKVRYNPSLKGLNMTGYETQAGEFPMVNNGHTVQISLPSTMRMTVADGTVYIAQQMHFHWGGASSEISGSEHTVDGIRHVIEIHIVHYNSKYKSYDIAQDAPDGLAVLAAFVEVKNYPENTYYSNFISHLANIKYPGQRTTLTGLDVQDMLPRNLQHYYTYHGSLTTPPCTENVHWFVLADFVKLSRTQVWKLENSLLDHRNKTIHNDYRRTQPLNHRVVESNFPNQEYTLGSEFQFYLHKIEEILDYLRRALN
# Carbonic anhydrase 1 = Carbonic anhydrase 1 (Homo sapiens, UniProt P00915); experiment: Inhibition of human CA1 preincubated for 15 mins by phenol red staining based stopped flow CO2 hydrase assay
# Carbonic anhydrase 1, sequence (P00915 whole entry): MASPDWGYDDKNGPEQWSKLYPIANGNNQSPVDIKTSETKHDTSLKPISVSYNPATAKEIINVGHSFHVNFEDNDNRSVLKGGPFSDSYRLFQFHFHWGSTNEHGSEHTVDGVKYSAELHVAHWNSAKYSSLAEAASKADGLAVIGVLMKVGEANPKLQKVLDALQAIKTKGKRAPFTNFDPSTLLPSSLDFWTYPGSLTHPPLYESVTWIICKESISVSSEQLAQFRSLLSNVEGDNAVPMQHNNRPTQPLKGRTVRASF
# Carbonic anhydrase 5A, mitochondrial, sequence (P35218 whole entry): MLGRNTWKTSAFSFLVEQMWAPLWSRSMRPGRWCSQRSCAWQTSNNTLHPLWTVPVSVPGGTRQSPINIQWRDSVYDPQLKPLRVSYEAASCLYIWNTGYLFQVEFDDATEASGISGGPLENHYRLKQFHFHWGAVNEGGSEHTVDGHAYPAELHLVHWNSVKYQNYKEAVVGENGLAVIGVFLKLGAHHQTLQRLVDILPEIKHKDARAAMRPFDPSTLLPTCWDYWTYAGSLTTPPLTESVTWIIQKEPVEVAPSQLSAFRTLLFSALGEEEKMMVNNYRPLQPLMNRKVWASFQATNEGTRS
smiles,measurement,setting,value
CC[C@@H](C(N)=O)N1CCCC1=O,Ki,[1],9.2 µM
same,Ki,Carbonic anhydrase 2,3.92 µM
same,Ki,Carbonic anhydrase 4,5.3 µM
same,Ki,Carbonic anhydrase 13,4.17 µM
same,Ki,Carbonic anhydrase 14,2.27 µM
same,Ki,Carbonic anhydrase 9,0.089 µM
same,Ki,[2],3.86 µM
same,Ki,Carbonic anhydrase 7,7.55 µM
same,Ki,Carbonic anhydrase 12,0.054 µM
same,Ki,Carbonic anhydrase 3,2.44 µM
same,Ki,Carbonic anhydrase 6,8.4 µM
same,Ki,Carbonic anhydrase 1,7.95 µM
